According to patent publication US20230257367A1, “NOVEL THYROID HORMONE BETA RECEPTOR AGONIST” (Chengdu Kanghong Pharmaceutical Co., Ltd., priority 2020, published 2023):
Read-outs that look alike come from different tables or passages of the source.

Assays:
TRβ-LBD/RXRα = target: T1, TRβ-LBD/RXRα (Homo sapiens, UniProt P10828); assay: In vitro binding experiment (TR-FRET SRC2-2 co-activator peptide recruitment), TRβ; assay type: biochemical; settings: 4 h incubation at room temperature
T1 construct: TRβ-LBD (Invitrogen, PV4764) with a GST tag were used; purchased Invitrogen (TRβ-LBD); Pharmaron (RXRα) PV4764
T1 sequence (P19793 whole entry partner, other chains not shown, the tested form may be a part): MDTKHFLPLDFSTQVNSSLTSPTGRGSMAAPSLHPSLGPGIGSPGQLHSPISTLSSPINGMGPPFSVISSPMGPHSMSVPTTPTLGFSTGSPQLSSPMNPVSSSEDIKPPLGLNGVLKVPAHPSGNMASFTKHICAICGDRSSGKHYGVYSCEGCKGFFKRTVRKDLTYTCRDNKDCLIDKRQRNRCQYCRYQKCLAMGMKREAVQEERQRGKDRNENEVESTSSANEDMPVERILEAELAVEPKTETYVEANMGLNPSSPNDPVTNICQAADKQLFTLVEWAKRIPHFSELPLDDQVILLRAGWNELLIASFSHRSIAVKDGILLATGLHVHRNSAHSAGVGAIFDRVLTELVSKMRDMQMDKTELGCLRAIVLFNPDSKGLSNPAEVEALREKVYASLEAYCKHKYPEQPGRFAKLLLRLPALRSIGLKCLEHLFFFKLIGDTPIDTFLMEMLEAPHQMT

TRα-LBD/RXRα = target: T2, TRα-LBD/RXRα (Homo sapiens, UniProt P10827); assay: In vitro binding experiment (TR-FRET SRC2-2 co-activator peptide recruitment), TRα; assay type: biochemical; settings: 4 h incubation at room temperature
T2 construct: TRα-LBD (Invitrogen, PV4762), or TRβ-LBD (Invitrogen, PV4764) with a GST tag were used; purchased Invitrogen (TRα-LBD); Pharmaron (RXRα) PV4762
T2 sequence (P19793 whole entry partner, other chains not shown, the tested form may be a part): as above

TRβ = target: T3, TRβ (Homo sapiens, UniProt P10828); assay: In vitro TRβ cell transfection experiment (GAL4 luciferase reporter, HEK293T); assay type: cell-based
T3 construct: host or cells: HEK293T
T3 sequence (P10828 217-461 limits assumed): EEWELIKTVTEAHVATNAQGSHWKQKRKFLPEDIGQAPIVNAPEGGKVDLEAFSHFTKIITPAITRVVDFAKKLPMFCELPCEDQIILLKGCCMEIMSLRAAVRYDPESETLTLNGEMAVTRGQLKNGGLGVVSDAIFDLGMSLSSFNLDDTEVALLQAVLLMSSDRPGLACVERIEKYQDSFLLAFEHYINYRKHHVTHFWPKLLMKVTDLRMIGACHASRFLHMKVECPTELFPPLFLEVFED
T3 sequence (P19793 227-458 partner limits assumed): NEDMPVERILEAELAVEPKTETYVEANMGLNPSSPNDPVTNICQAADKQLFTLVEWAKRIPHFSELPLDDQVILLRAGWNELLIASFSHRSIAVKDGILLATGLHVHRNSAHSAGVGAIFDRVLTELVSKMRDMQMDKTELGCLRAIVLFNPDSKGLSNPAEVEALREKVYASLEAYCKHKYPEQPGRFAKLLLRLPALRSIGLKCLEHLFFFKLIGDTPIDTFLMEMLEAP

TRα = target: T4, TRα (Homo sapiens, UniProt P10827); assay: In vitro TRα cell transfection experiment (GAL4 luciferase reporter, HEK293T); assay type: cell-based
T4 construct: host or cells: HEK293T
T4 sequence (P10827 1-410 isoform P10827-2): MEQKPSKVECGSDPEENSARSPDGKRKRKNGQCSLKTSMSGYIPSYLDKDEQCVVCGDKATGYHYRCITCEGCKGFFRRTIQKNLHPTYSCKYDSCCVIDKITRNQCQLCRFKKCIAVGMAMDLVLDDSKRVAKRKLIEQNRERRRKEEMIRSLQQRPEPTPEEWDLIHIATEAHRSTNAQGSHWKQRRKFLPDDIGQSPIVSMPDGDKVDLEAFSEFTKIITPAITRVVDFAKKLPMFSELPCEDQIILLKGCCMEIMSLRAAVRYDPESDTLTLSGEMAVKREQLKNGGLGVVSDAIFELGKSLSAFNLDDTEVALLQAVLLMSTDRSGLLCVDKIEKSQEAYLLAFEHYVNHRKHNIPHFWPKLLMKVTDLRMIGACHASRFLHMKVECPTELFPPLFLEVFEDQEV
T4 sequence (P19793 227-458 partner limits assumed): T3 sequence (P19793 227-458 partner limits assumed)

[1] = PK experiment of cynomolgus monkeys; assay type: in vivo; settings: cynomolgus monkey, plasma; for AUC(0-t): read-out: Area under the curve AUC(0-t) in the case of administration; for Cmax: read-out: Peak concentration Cmax
Text: The purpose of this experiment was to evaluate the pharmacokinetic behavior of the compound to be tested after single intravenous and intragastric administration, and to study the bioavailability after intragastric administration, providing animal experimental data for clinical studies.
Preparation of solutions for intravenous injection and intragastric administration: an appropriate amount of compound to be tested was accurately weighed, and mixed with a suitable solvent (5 vol % DMSO+10 vol % polyethylene glycol−15-hydroxystearate+85 vol % normal saline). After vortex, or ultrasound processing, a clear and transparent solution (the solution for intravenous injection administration), or a uniform suspension was obtained. The solution administrated by intravenous injection needed to be filtered through a 0.22 μm filter membrane
Experimental design: before the first dose the cynomolgus monkeys were divided into 2 groups by body weight with 3 male cynomolgus monkeys in each group, where animals in group 1 were given the compound to be tested (1 mg/kg) by single intravenous injection (IV); and animals in the 2rd group were administrated with the compound to be tested (5 mg/kg) by single intragastric administration (PO). The animals were weighed before administration, and dosages were calculated based on the weights of the animals.
Sample collection: a whole blood sample (about 0.2 mL) was collected at a specified time by venipuncture of an upper limb (or other suitable blood collection sites), and the actual blood collection time was recorded in test records. The acceptable error for one acquisition time point within 1 hour after administration is ±1 minute, and the acceptable error for other time points is ±5% of the theoretical time. All blood samples were immediately transferred to a labeled commercial centrifuge tube containing K2-EDTA. After blood sample collection, the blood sample was centrifuged at 4° C. and 3,200 g for 10 minutes, the supernatant plasma was sucked, quickly put in dry ice, and kept in a refrigerator at −70±10° C. for LC-MS/MS analysis. The collection time of both groups was 0.083 hour, 0.25 hour, 0.5 hour, 1 hour, 2 hours, 4 hours, 8 hours and 24 hours after administration.
Data processing: Area under the curve (AUC(0-t) and AUC(0-∞)), elimination half-life (T½), peak concentration (Cmax), time to reach maximum plasma concentration (Tmax), etc., were calculated by the non-compartment analysis module in Phoenix WinNonlin 7.0.

SMILES: CC(C)c1nc(Oc2c(Cl)cc(NCP(=O)(O)O)cc2Cl)ncc1O [KH02]
- EC50 (TRβ-LBD/RXRα): 1.06 µM

SMILES: CC(C)c1nc(Oc2c(Cl)cc(NCC(=O)O)cc2Cl)ncc1O [KH04]
- EC50 (TRα-LBD/RXRα): 0.133 µM
- EC50 (TRβ-LBD/RXRα): 0.113 µM
- EC50 (TRβ): 1.28 µM
- EC50 (TRα): 2.49 µM

SMILES: CC(C)c1nc(Oc2c(Cl)cc(-n3nc(C#N)c(=O)[nH]c3=O)c3c2CCO3)ncc1O [KH07]
- EC50 (TRα-LBD/RXRα): 0.31 µM
- EC50 (TRβ-LBD/RXRα): 0.048 µM
- EC50 (TRβ): 0.208 µM
- EC50 (TRα): 0.964 µM

SMILES: N#Cc1nn(-c2cc(Cl)c(Oc3ncc(O)c(Cc4ccccc4)n3)c(Cl)c2)c(=O)[nH]c1=O [KH09]
- EC50 (TRα-LBD/RXRα): 1.88 µM
- EC50 (TRβ-LBD/RXRα): 0.066 µM

SMILES: CC(C)c1nc(Oc2c(Cl)cc(-n3nc(C#N)c(=O)[nH]c3=O)c3c2CCC3)ncc1O [KH13]
- EC50 (TRα-LBD/RXRα): 0.132 µM
- EC50 (TRβ-LBD/RXRα): 0.054 µM
- EC50 (TRβ): 1.13 µM
- EC50 (TRα): 2.74 µM

SMILES: CC(C)c1nc(Oc2c(Cl)cc(-n3ncc(=O)[nH]c3=O)c3c2CCC3)ncc1O [KH14]
- EC50 (TRα-LBD/RXRα): 0.102 µM
- EC50 (TRβ-LBD/RXRα): 0.105 µM
- EC50 (TRβ): 0.148 µM
- EC50 (TRα): 0.383 µM

SMILES: [2H]C([2H])([2H])C(c1nc(Oc2c(Cl)cc(-n3nc(C#N)c(=O)[nH]c3=O)cc2Cl)ncc1O)C([2H])([2H])[2H] [KH15]
- EC50 (TRα-LBD/RXRα): 0.194 µM
- EC50 (TRβ-LBD/RXRα): 0.014 µM
- EC50 (TRβ): 0.205 µM
- EC50 (TRα): 1.46 µM

SMILES: [2H]C([2H])([2H])C(c1nc(Oc2c(Cl)cc(-n3ncc(=O)[nH]c3=O)cc2Cl)ncc1O)C([2H])([2H])[2H] [KH16]
- EC50 (TRα-LBD/RXRα): 0.106 µM
- EC50 (TRβ-LBD/RXRα): 0.012 µM
- EC50 (TRβ): 0.019 µM
- EC50 (TRα): 0.138 µM

SMILES: CC(C)c1nc(Sc2c(Cl)cc(-n3nc(C#N)c(=O)[nH]c3=O)cc2Cl)ncc1O [KH17]
- EC50 (TRα-LBD/RXRα): 0.385 µM
- EC50 (TRβ-LBD/RXRα): 0.021 µM

SMILES: CC(C)c1nc(Sc2c(Cl)cc(-n3ncc(=O)[nH]c3=O)cc2Cl)ncc1O [KH18]
- EC50 (TRα-LBD/RXRα): 0.188 µM
- EC50 (TRβ-LBD/RXRα): 0.011 µM
- EC50 (TRβ): 0.007 µM
- EC50 (TRα): 0.028 µM

SMILES: N#Cc1nn(-c2cc(Cl)c(Oc3ncc(O)c(Cc4ccc(F)cc4)n3)c(Cl)c2)c(=O)[nH]c1=O [KHE001]
- EC50 (TRα-LBD/RXRα): 0.418 µM
- EC50 (TRβ-LBD/RXRα): 0.007 µM
- EC50 (TRβ): 0.258 µM
- EC50 (TRα): 0.563 µM

SMILES: O=c1cnn(-c2cc(Cl)c(Oc3ncc(O)c(Cc4ccc(F)cc4)n3)c(Cl)c2)c(=O)[nH]1 [KHE002]
- EC50 (TRα-LBD/RXRα): 0.272 µM
- EC50 (TRβ-LBD/RXRα): 0.003 µM
- EC50 (TRβ): 0.004 µM
- EC50 (TRα): 0.039 µM

SMILES: CC(C)c1nc(Oc2c(Cl)cc(-c3noc(=O)[nH]3)cc2Cl)ncc1O [KHE003]
- EC50 (TRα-LBD/RXRα): 0.573 µM
- EC50 (TRβ-LBD/RXRα): 0.746 µM

SMILES: N#Cc1nn(-c2cc(Cl)c(Oc3ncc(O)c(CC4CCCCC4)n3)c(Cl)c2)c(=O)[nH]c1=O [KHE007]
- EC50 (TRα-LBD/RXRα): 5.12 µM
- EC50 (TRβ-LBD/RXRα): 0.089 µM
- EC50 (TRβ): 0.227 µM
- EC50 (TRα): 0.528 µM

SMILES: O=c1cnn(-c2cc(Cl)c(Oc3ncc(O)c(CC4CCCCC4)n3)c(Cl)c2)c(=O)[nH]1 [KHE008]
- EC50 (TRα-LBD/RXRα): 4.54 µM
- EC50 (TRβ-LBD/RXRα): 0.067 µM
- EC50 (TRβ): 0.008 µM
- EC50 (TRα): 0.049 µM

SMILES: CCC(CC)c1nc(Oc2c(Cl)cc(-n3nc(C#N)c(=O)[nH]c3=O)cc2Cl)ncc1O [KHE009]
- EC50 (TRα-LBD/RXRα): 0.258 µM
- EC50 (TRβ-LBD/RXRα): 0.04 µM
- EC50 (TRβ): 0.074 µM
- EC50 (TRα): 0.507 µM

SMILES: CCC(CC)c1nc(Oc2c(Cl)cc(-n3ncc(=O)[nH]c3=O)cc2Cl)ncc1O [KHE010]
- EC50 (TRα-LBD/RXRα): 0.22 µM
- EC50 (TRβ-LBD/RXRα): 0.029 µM

SMILES: N#Cc1nn(-c2cc(Cl)c(Oc3ncc(O)c(C4CC4)n3)c(Cl)c2)c(=O)[nH]c1=O [KHE017]
- EC50 (TRα-LBD/RXRα): 0.737 µM
- EC50 (TRβ-LBD/RXRα): 0.077 µM
- EC50 (TRβ): 0.88 µM
- EC50 (TRα): 3.31 µM

SMILES: O=c1cnn(-c2cc(Cl)c(Oc3ncc(O)c(C4CC4)n3)c(Cl)c2)c(=O)[nH]1 [KHE018]
- EC50 (TRα-LBD/RXRα): 0.346 µM
- EC50 (TRβ-LBD/RXRα): 0.04 µM
- EC50 (TRβ): 0.102 µM
- EC50 (TRα): 0.407 µM

SMILES: N#Cc1nn(-c2cc(Cl)c(Oc3ncc(O)c(C4CC(F)(F)C4)n3)c(Cl)c2)c(=O)[nH]c1=O [KHE019]
- EC50 (TRα-LBD/RXRα): 2.38 µM
- EC50 (TRβ-LBD/RXRα): 0.254 µM

SMILES: CC(C)c1nc(Oc2c(Cl)cc(NC(=O)C(=O)O)cc2Cl)ncc1O [KHE021]
- EC50 (TRα-LBD/RXRα): 0.008 µM
- EC50 (TRβ-LBD/RXRα): 0.001 µM
- EC50 (TRβ): 0.5 µM
- EC50 (TRα): 1.17 µM

SMILES: CC(C)c1cc(Oc2c(Cl)cc(-n3nc(C#N)c(=O)[nH]c3=O)cc2Cl)n[nH]c1=O [MGL3196, reference compound]
- half-life ([1]; IV, 1 mg/kg, single dose, male cynomolgus monkeys, read-out: Half-life period (T1/2) (converted)): 1.45 h
- bioavailability ([1]; male, PO 5 mg/kg vs IV 1 mg/kg, read-out: Bioavailability (F)): 8.47%
- AUC(0-t) ([1]; male, IV, 1 mg/kg, single dose): 3900 ng·h/mL
- Cmax ([1]; male, IV, 1 mg/kg, single dose): 11200 ng/mL
- AUC(0-t) ([1]; male, PO, 5 mg/kg, single dose): 1650 ng·h/mL
- Cmax ([1]; male, PO, 5 mg/kg, single dose): 430 ng/mL
